In patent US6054435A, “6-O-substituted macrolides having antibacterial activity” (priority 1999, dated 2000):
In brackets after ≈: the same amount, converted by molar mass.

How the values were obtained:
Test in all cases: in vitro antibacterial activity (MIC), agar dilution
Format in all cases: cell-based
[1] = tested on: Candida albicans CCH 442; details: organism code TT; BHI agar, 35-37° C., 20 to 24 hours; unit assumed
Procedure, shortened: (§1)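 Steps: dilute compound serially into BHI agar (twelve plates); spot inocula diluted 1:100, or 1:10 for slow-growing Streptococcus; incubate; inspect visually. MIC recorded as lowest level with no growth, slight haze or sparse isolated colonies.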

[2] = tested on: Enterococcus faecium ATCC 8043; details: organism code II; BHI agar, 35-37° C., 20 to 24 hours; unit assumed
Procedure, shortened: as §1

[3] = tested on: Escherichia coli DC-2; details: organism code SS; BHI agar, 35-37° C., 20 to 24 hours; unit assumed
Procedure, shortened: as §1

[4] = tested on: Escherichia coli JUHL; details: organism code QQ; BHI agar, 35-37° C., 20 to 24 hours; unit assumed
Procedure, shortened: as §1

[5] = tested on: Escherichia coli SS; details: organism code RR; BHI agar, 35-37° C., 20 to 24 hours; unit assumed
Procedure, shortened: as §1

[6] = tested on: Haemophilis Influenzae DILL AMP R; details: organism code WW; BHI agar, 35-37° C., 20 to 24 hours; unit assumed
Procedure, shortened: as §1

[7] = tested on: Micrococcus luteus ATCC 4698; details: organism code PP; BHI agar, 35-37° C., 20 to 24 hours; unit assumed
Procedure, shortened: (§2)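 Antibacterial MIC determined by agar dilution in BHI agar with twelve successive concentrations; controls comprised compound-free plates and a same-class reference antibiotic. MIC: lowest concentration giving no growth, slight haze or sparsely isolated colonies.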

[8] = tested on: Micrococcus luteus ATCC 9341; details: organism code OO; BHI agar, 35-37° C., 20 to 24 hours; unit assumed
Procedure, shortened: as §2

[9] = tested on: Mycobacterium smegmatis ATCC 114; details: organism code UU; BHI agar, 35-37° C., 20 to 24 hours; unit assumed
Procedure, shortened: as §1

[10] = tested on: Nocardia Asteroides ATCC9970; details: organism code VV; BHI agar, 35-37° C., 20 to 24 hours; unit assumed
Procedure, shortened: as §1

[11] = tested on: Staphylococcus aureus 1775; details: organism code GG; BHI agar, 35-37° C., 20 to 24 hours; unit assumed
Procedure, shortened: as §1

[12] = tested on: Staphylococcus aureus A-5278; details: organism code CC; BHI agar, 35-37° C., 20 to 24 hours; unit assumed
Procedure, shortened: as §1

[13] = tested on: Staphylococcus aureus A5177; details: organism code BB; BHI agar, 35-37° C., 20 to 24 hours; unit assumed
Procedure, shortened: as §1

[14] = tested on: Staphylococcus aureus ATCC 6538P; details: organism code AA; BHI agar, 35-37° C., 20 to 24 hours; unit assumed
Procedure, shortened: as §1

[15] = tested on: Staphylococcus aureus CMX 553; details: organism code FF; BHI agar, 35-37° C., 20 to 24 hours; unit assumed
Procedure, shortened: as §1

[16] = tested on: Staphylococcus aureus CMX 642A; details: organism code DD; BHI agar, 35-37° C., 20 to 24 hours; unit assumed
Procedure, shortened: as §1

[17] = tested on: Staphylococcus aureus NCTC10649M; details: organism code EE; BHI agar, 35-37° C., 20 to 24 hours; unit assumed
Procedure, shortened: as §1

[18] = tested on: Staphylococcus epidermidis 3519; details: organism code HH; BHI agar, 35-37° C., 20 to 24 hours; unit assumed
Procedure, shortened: as §1

[19] = tested on: Streptococcus Pneumonia 5649; details: organism code ZZA; BHI agar, 35-37° C., 20 to 24 hours; unit assumed
Procedure, shortened: as §1

[20] = tested on: Streptococcus Pneumonia 5979; details: organism code ZZ; BHI agar, 35-37° C., 20 to 24 hours; unit assumed
Procedure, shortened: as §1

[21] = tested on: Streptococcus Pneumonia ATCC6303; details: organism code XX; BHI agar, 35-37° C., 20 to 24 hours; unit assumed
Procedure, shortened: as §1

[22] = tested on: Streptococcus Pneumonia GYR 1171; details: organism code YY; BHI agar, 35-37° C., 20 to 24 hours; unit assumed
Procedure, shortened: as §1

[23] = tested on: Streptococcus agalactiae CMX 508; details: organism code KK; BHI agar, 35-37° C., 20 to 24 hours; unit assumed
Procedure, shortened: as §1

[24] = tested on: Streptococcus bovis A-5169; details: organism code JJ; BHI agar, 35-37° C., 20 to 24 hours; unit assumed
Procedure, shortened: as §1

[25] = tested on: Streptococcus pyogenes 930; details: organism code MM; BHI agar, 35-37° C., 20 to 24 hours; unit assumed
Procedure, shortened: as §1

[26] = tested on: Streptococcus pyogenes EES61; details: organism code LL; BHI agar, 35-37° C., 20 to 24 hours; unit assumed
Procedure, shortened: as §1

[27] = tested on: Streptococcus pyogenes PIU 2548; details: organism code NN; BHI agar, 35-37° C., 20 to 24 hours; unit assumed
Procedure, shortened: as §1

Row | Compound | MIC [1] | MIC [2] | MIC [3] | MIC [4] | MIC [5] | MIC [6] | MIC [7] | MIC [8] | MIC [9] | MIC [10] | MIC [11] | MIC [12] | MIC [13] | MIC [14] | MIC [15] | MIC [16] | MIC [17] | MIC [18] | MIC [19] | MIC [20] | other results
1 | CC[C@H]1OC(=O)[C@H](C)C(=O)[C@H](C)[C@@H](O[C@@H]2O[C@H](C)C[C@H](N(C)C)[C@H]2O)[C@](C)(OCC#Cc2ccc(-c3cncc(C(N)=O)c3)s2)C[C@@H](C)C(=O)[C@H](C)[C@H]2NC(=O)O[C@@]21C [Example 9] | > 100 µg/mL | 0.05 µg/mL (≈ 0.0596 µM) | 50 µg/mL (≈ 59.6 µM) | 50 µg/mL (≈ 59.6 µM) | 0.78 µg/mL (≈ 0.93 µM) | 2 µg/mL (≈ 2.38 µM) | 0.1 µg/mL (≈ 0.119 µM) | 0.02 µg/mL (≈ 0.0238 µM) | 6.2 µg/mL (≈ 7.39 µM) | 0.1 µg/mL (≈ 0.119 µM) | > 100 µg/mL | > 100 µg/mL | 0.1 µg/mL (≈ 0.119 µM) | 0.1 µg/mL (≈ 0.119 µM) | 0.1 µg/mL (≈ 0.119 µM) | 0.1 µg/mL (≈ 0.119 µM) | 0.2 µg/mL (≈ 0.238 µM) | 0.1 µg/mL (≈ 0.119 µM) | 0.25 µg/mL (≈ 0.298 µM) | 0.03 µg/mL (≈ 0.0358 µM) | MIC [21]: ≤ 0.004 µg/mL; MIC [22]: ≤ 0.004 µg/mL; MIC [23]: 0.02 µg/mL (≈ 0.0238 µM); MIC [24]: 0.02 µg/mL (≈ 0.0238 µM); MIC [25]: 0.2 µg/mL (≈ 0.238 µM); MIC [26]: 0.02 µg/mL (≈ 0.0238 µM); MIC [27]: 0.2 µg/mL (≈ 0.238 µM)
2 | CC[C@H]1OC(=O)[C@H](C)C(=O)[C@H](C)[C@@H](O[C@@H]2O[C@H](C)C[C@H](N(C)C)[C@H]2O)[C@](C)(OCC#Cc2ccc(-c3nccn3C)s2)C[C@@H](C)C(=O)[C@H](C)[C@H]2NC(=O)O[C@@]21C [Example 32] | > 100 µg/mL | 0.02 µg/mL (≈ 0.025 µM) | > 100 µg/mL | 50 µg/mL (≈ 62.6 µM) | 0.2 µg/mL (≈ 0.25 µM) | 2 µg/mL (≈ 2.5 µM) | 0.05 µg/mL (≈ 0.0626 µM) | 0.01 µg/mL (≈ 0.0125 µM) | 1.56 µg/mL (≈ 1.95 µM) | 0.01 µg/mL (≈ 0.0125 µM) | > 100 µg/mL | > 100 µg/mL | 0.05 µg/mL (≈ 0.0626 µM) | 0.05 µg/mL (≈ 0.0626 µM) | 0.05 µg/mL (≈ 0.0626 µM) | 0.05 µg/mL (≈ 0.0626 µM) | 0.1 µg/mL (≈ 0.125 µM) | 0.1 µg/mL (≈ 0.125 µM) | 0.25 µg/mL (≈ 0.313 µM) | 0.25 µg/mL (≈ 0.313 µM) | MIC [21]: 0.03 µg/mL (≈ 0.0375 µM); MIC [22]: 0.03 µg/mL (≈ 0.0375 µM); MIC [23]: 0.01 µg/mL (≈ 0.0125 µM); MIC [24]: ≤ 0.005 µg/mL; MIC [25]: 12.5 µg/mL (≈ 15.6 µM); MIC [26]: 0.01 µg/mL (≈ 0.0125 µM); MIC [27]: 0.39 µg/mL (≈ 0.488 µM)
3 | CC[C@H]1OC(=O)[C@H](C)C(=O)[C@H](C)[C@@H](O[C@@H]2O[C@H](C)C[C@H](N(C)C)[C@H]2O)[C@](C)(OC/C=C/c2cncc(-c3nccs3)c2)C[C@@H](C)C(=O)[C@H](C)[C@H]2NC(=O)O[C@@]21C [Example 51] | > 100 µg/mL | 0.05 µg/mL (≈ 0.0626 µM) | 25 µg/mL (≈ 31.3 µM) | 100 µg/mL (≈ 125 µM) | 0.2 µg/mL (≈ 0.25 µM) | 2 µg/mL (≈ 2.5 µM) | 0.2 µg/mL (≈ 0.25 µM) | 0.01 µg/mL (≈ 0.0125 µM) | 0.39 µg/mL (≈ 0.488 µM) | 0.05 µg/mL (≈ 0.0626 µM) | > 100 µg/mL | > 100 µg/mL | 0.05 µg/mL (≈ 0.0626 µM) | 0.1 µg/mL (≈ 0.125 µM) | 0.1 µg/mL (≈ 0.125 µM) | 0.1 µg/mL (≈ 0.125 µM) | 0.1 µg/mL (≈ 0.125 µM) | 0.1 µg/mL (≈ 0.125 µM) | 0.25 µg/mL (≈ 0.313 µM) | > 128 µg/mL | MIC [21]: ≤ 0.004 µg/mL; MIC [22]: ≤ 0.004 µg/mL; MIC [23]: 0.01 µg/mL (≈ 0.0125 µM); MIC [24]: 0.01 µg/mL (≈ 0.0125 µM); MIC [25]: 6.2 µg/mL (≈ 7.76 µM); MIC [26]: 0.02 µg/mL (≈ 0.025 µM); MIC [27]: 0.2 µg/mL (≈ 0.25 µM)
